Laboratory results from ChEMBL document CHEMBL3044791, “Synthesis and Structure-Activity Relationships of Vasicine Analogues as Bronchodilatory Agents” (2005).

Tests used:
Tissue [1] = experiment: Bronchodilatory activity in histamine-precontracted Cavia porcellus (guinea pig) trachea at 30 ug/ml; type: functional
Tissue [2] = experiment: Bronchodilatory activity in acetylcholine-precontracted Cavia porcellus (guinea pig) trachea at 30 ug/ml; type: functional

Compound | Activity (Tissue [1]) [%] | Activity (Tissue [2]) [%]
CCc1nc2ccccc2c(=O)n1-c1ccc(F)cc1 | 20 | 
Cc1nc2ccccc2c(=O)n1-c1ccccc1 | 100 | 
CCCc1nc2ccccc2c(=O)n1-c1ccc(F)cc1 | 10 | 
O=C1CC(c2ccccc2)N=C2CCCCN12 (centres undefined) | 20 | 
CCc1nc2ccccc2c(=O)n1-c1ccccc1 | 100 | 
O=C1CC(c2ccccc2)N=C2CCCCCN12 (centres undefined) | 50 | 30
O=c1c2ccccc2nc2n1CCCC2 | 40 | 
O=c1c2cc3c(cc2nc2n1CCCCC2)OCO3 | 100 | 100
O=c1c2ccccc2nc2n1CCCCC2 | 100 | 100
O=c1c2ccccc2nc2n1CCC2 [DEOXYVASICINONE] | 20 | 
Cn1c(=O)c2c(ncn2CCO)n(C)c1=O [ETOFYLLINE] | 40 | 40
Cc1nc2ccccc2c(=O)n1-c1ccc(F)cc1 | 80 | 
CCCc1nc2ccccc2c(=O)n1-c1ccccc1 | 50 | 
O=c1c2cc3c(cc2nc2n1CCCC2)OCO3 | 50 | 40
